{
  "source": "patent US5449608A",
  "about": "“Parvovirus B19 receptor and parvovirus B19 detection” (The United States of America as represented by the …, priority 1993, dated 1995)",
  "key": {"human red cells": {"system": "human red cells", "assay": "Hemagglutination (HA) assay with reagent-treated erythrocytes and B19 empty capsids", "format": "cell-based", "conditions": "for Change in HA titer (log2): erythrocytes incubated with agent at 37° C.; for Effect of red cell treatment on binding of virus to the erythrocytes: human red cells treated with agent", "text": "(§1) The B19 parvovirus receptor was identified utilizing a hemagglutination (HA) assay as described in Brown and Cohen (1992). Briefly, the ability of B19 to hemagglutinate human red cells was utilized to evaluate the ability of certain compounds to inhibit agglutination in the assay. Cellular components from red cell membranes were fractionated and their reactivity evaluated in the HA assay. Lipid extraction and purification of glycolipid fractions followed by evaluation in the HA assay identified the glycosphingolipid, globoside, as the cellular receptor for B19. Further, biochemical characterization and HA evaluation identified the polysaccharide GalNAc(β,3-3)Gal(α1-4)Gal(β,1-4)Glc as the specific binding domain for B19. […] Antibodies specific for globoside were also utilized in the assay to block infectivity to verify that globoside was the receptor.\nIn order to characterize the physical nature of the B19 receptor, human red cells were treated with a variety of agents and the change in hemagglutination (HA) titer measured (ICE. Brown et al. (1992)) (Table 1).\nTable 1. Washed erythrocytes (0.5% v/v) were incubated at 37° C.\nwith the reagents, washed twice in saline and resuspended at 0.5%. The\ncells were used in a standard hemagglutination assay using B19 empty\ncapsids produced in insect cells (Brown and Cohen (1992)) the end point\nwas 50% HA (1 HA50). In the table, therefore, an increasing the HA\ntiter (log2) by a factor of one reflects a doubling of the measured"}, "B19 empty capsids [1]": {"system": "B19 empty capsids", "assay": "Hemagglutination inhibition assay (HAI)", "format": "binding, parvovirus B19", "conditions": "for HAI titer: Purified glycosphingolipid, 1 mg/ml in saline, 4-8 HA50 units of virus capsid", "text": "as §1\nTo identify the B19 cellular receptor, the ability of B19 to agglutinate red cells and B19 infectivity assays were used as measures of viral binding. It had been previously shown that B19 parvovirus empty capsids (S. Kajigaya et al. (1991)) agglutinate human red cells Brown and Cohen (1992)), and we tested the ability of membrane extracts from different cell types to block B19 binding in the hemagglutination assay (HA). Membrane extracts were prepared using 10 mM CHAPS (3-[(3cholamidopropyl)-dimethylammonio]-1-propanesulfonate) to solubilize proteins and lipids.\nTable 2. Human erythrocyte ghosts (J. T. Dodge, et al (1963)) were treate\nwith 10 mM CHAPS, the solubilized extract incubated with agarose\nimmobilized enzymes overnight at 37° C. and the supernatant tested\nin a hemagglutination inhibition assay (HAI). Purified glycosphingolipids\n(Sigma or BioCarb Chemicals) were dissolved in saline and tested by HAI\nusing 4-8 HA50 units of virus capsid. (In the table, CTH is ceramide\ntrihexoside and the HAI titer is the dilution required to reduce the HA t\nTable 3. Hemagglutination inhibition (HAI) titers red cell lipid\nfractionated on different columns. Lipid was extracted from red cell\nghosts (9,12) and fractionated on either a silica gel or\nDEAEcellulose-acetate column (13). Organic solvents were removed by\nevaporation and salts removed by dialysis against water and\nlyophilization. The residual pellets were resuspended in saline and teste\nin the hemagglutination assay."}, "B19 virus": {"system": "B19 virus", "assay": "Erythroid progenitor assay (CFU-E in methylcellulose) for B19 infection", "format": "cell-based, parvovirus B19", "conditions": "for Blocking of B19 cytotoxicity to CFU-E: B19 virus preincubated with globoceramide two hours, then bone marrow mononuclear cells two hours, CFU-E counted seven days later", "method": "To establish the biological relevance of binding of virus to P antigen, globoceramides were tested for their ability to block vital infection of permissive cells, using the erythroid progenitor assay (P. P. Mortimer et al. (1983)). Parvovirus B19 is highly toxic to the production of erythroid colonies from late erythroid progenitors (CFU-E) in methylcellulose culture, and this system was used as an assay for B19 infection. In the study, binding of B19 antigen to P antigen was shown by competition of infection using globoside or monoclonal antibody to P antigen. First, B19 virus was preincubated with different globoceramides, e.g., lactosyl, triosyl, and Forssman (Sigma or BioCarb Chemicals) and with different globoside concentrations for two hours, and then mixed with bone marrow mononuclear cells for a further two hours. […] Second, mouse monoclonal antibodies to P-antigen (A. E. yon dem Borne et al. (1986)) or P1 or p^k (BioCarb Chemicals) were diluted 1:100 and incubated with bone marrow mononuclear cells for two hours. Purified B19 virus as above was added for a further two hours. The cell mixtures were plated in methylcellulose (P. Mortimer et al. (1983)) and CFU-E counted seven days later. […] There was no protection with similar antibodies against P1 or p^k."}, "B19 empty capsids [2]": {"system": "B19 empty capsids", "assay": "Binding of viral capsids to glycosphingolipids by thin layer chromatography", "design": "species or system parvovirus B19", "conditions": "1 ug of purified glycosphingolipid on silica plate", "method": "Red cells from individuals with different blood group P system phenotypes were tested for their ability to agglutinate with parvovirus B19. Only cells containing P antigen hemagglutinated: P1 phenotype HA titer was 10,000; P2 phenotype HA titer was 5,000; P1^k and p phenotype were <200. […] Lipids were extracted from 0.2 mls packed red cells (H. Rose et al. (1965)) of patients with different P blood group phenotypes, dried and resuspended in 50 ul chloroform:methanol 1:1.20 ul of extract or 1 ug of each purified glycosphingolipid (Calbiochem) were applied to a silica plate (Merck) and chromatography performed with chloroform:methanol:water 65:25:4. Non-specific binding was blocked with 3% bovine albumin in phosphate buffered saline (16 hours) before the plates were sequentially incubated with B19 empty capsids, a human polyclonal anti-B19 serum, goat anti-human antibody conjugated with horse radish peroxidase, and developed with diaminobenzidene enhanced with cobalt chloride. The capsids bound to the globoside in P1 and P2 cells, and to purified globoside and Forssman antigen. B19 capsids and mouse monoclonal antibody to globoside (A. E. yon dem Borne et al. (1986)) bound to the same band on Western blotting of red cell extract, the putative \"globoprotein\" (Y. Tonegawa et al. (1977))."}},
  "data": [
    {"molecule": "O[C@H](CS)[C@H](O)CS", "note": "(racemic) [Dithiothreitol]", "values": [
      {"measurement": "Change in HA titer (log2)", "setting": "human red cells; time 1 hr, final conc. 4 mM", "result": 0, "unit": "log2"}
    ]},
    {"molecule": "OCCS", "note": "[2-Mercaptoethanol]", "values": [
      {"measurement": "Change in HA titer (log2)", "setting": "human red cells; time 1 hr, final conc. 5 mM", "result": 0, "unit": "log2"}
    ]},
    {"molecule": "O=C(O)CN(CCN(CC(=O)O)CC(=O)O)CC(=O)O", "note": "[EDTA]", "values": [
      {"measurement": "Change in HA titer (log2)", "setting": "human red cells; time 1 hr, final conc. 5 mM", "result": 0, "unit": "log2"}
    ]},
    {"molecule": "C=O", "note": "[Formaldehyde]", "values": [
      {"measurement": "Change in HA titer (log2)", "setting": "human red cells; time 1 hr, final conc. 0.2%", "result": 0, "unit": "log2"}
    ]},
    {"molecule": "[Na+].[O-][I+3]([O-])([O-])[O-]", "note": "[NaIO4, sodium periodate]", "values": [
      {"measurement": "decrease in HA titer", "setting": "human red cells; High concentrations (10 mM)", "result": "> 4", "unit": "log2"},
      {"measurement": "Change in HA titer (log2)", "setting": "human red cells; time 15 min, final conc. 10 mM", "result": "< -4", "unit": "log2"},
      {"measurement": "Change in HA titer (log2)", "setting": "human red cells; time 20 hr, final conc. 5 uM", "result": -1, "unit": "log2"},
      {"measurement": "Effect of red cell treatment on binding of virus to the erythrocytes", "setting": "human red cells", "result": "markedly reduced binding"}
    ]},
    {"molecule": "Lactosyl ceramide", "values": [
      {"measurement": "HAI titer", "setting": "B19 empty capsids [1]", "result": "< 10"},
      {"measurement": "Blocking of B19 cytotoxicity to CFU-E", "setting": "B19 virus", "result": "no effect"}
    ]},
    {"molecule": "Trypsin", "values": [
      {"measurement": "Change in HA titer (log2)", "setting": "human red cells; time 1 hr, final conc. 0.2%", "result": "+4 log2"},
      {"measurement": "Effect of red cell treatment on binding of virus to the erythrocytes", "setting": "human red cells", "result": "increased binding"}
    ]},
    {"molecule": "globotetraosylceramide [Globoside, P]", "values": [
      {"measurement": "Binding of B19 capsids on thin layer chromatography plate", "setting": "B19 empty capsids [2]", "result": "bound"},
      {"measurement": "Inhibition of hemagglutination by B19", "setting": "B19 empty capsids [1]", "result": "inhibitory activity"},
      {"measurement": "HAI titer", "setting": "B19 empty capsids [1]", "result": 25600},
      {"measurement": "Blocking of B19 cytotoxicity to CFU-E", "setting": "B19 virus", "result": "completely blocked"},
      {"measurement": "Relationship of concentration to ability to block infectivity of mononuclear cells with B19 virus", "setting": "B19 virus; different globoside concentrations", "result": "positive linear relationship"}
    ]},
    {"molecule": "globotriaosylceramide [CTH, P^k]", "values": [
      {"measurement": "HAI titer", "setting": "B19 empty capsids [1]", "result": "< 10"},
      {"measurement": "Blocking of B19 cytotoxicity to CFU-E", "setting": "B19 virus", "result": "no effect"}
    ]}
  ]
}
